Structures can show the parent of a compound that is named as a salt.
Molecular target: MASP-2 CCP2-SP (Homo sapiens (Human), UniProt O00187)
Assay: MASP-2 co-crystallization, X-ray crystallography and structure analysis (H-bonds, van der Waals contacts);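 as to Ligand-pharmacophore element distance, pharmacophore element C2: distance from averaged pharmacophore element to bound ligand; missing value means element absent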;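 as to Ligand-pharmacophore element distance, pharmacophore element C3: distance from averaged pharmacophore element to bound ligand; missing value means element absent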;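 as to Ligand-pharmacophore element distance, pharmacophore element C4: distance from averaged pharmacophore element to bound ligand; missing value means element absent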;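 as to Ligand-pharmacophore element distance, pharmacophore element C5: distance from averaged pharmacophore element to bound ligand; missing value means element absent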
Design: van der Waals contact distance, MASP-2 HIS 483 atom CD2 / van der Waals contact distance, MASP-2 HIS 483 atom NE2 / van der Waals contact distance, SER 654 C to compound atom / van der Waals contact distance, SER 654 O to compound atom / van der Waals contact distance, TRP 655 C to compound atom / van der Waals contact distance, MASP-2 GLY 528 atom CA / van der Waals contact distance TRP 655 atom CZ3 / van der Waals contact distance TRP 655 atom N / van der Waals contact distance TRP 655 atom CE3 / van der Waals contact distance GLY 656 atom C / van der Waals contact distance GLY 656 atom CA / van der Waals contact distance GLY 656 atom O / van der Waals contact distance, MASP-2 TYR 607 atom CD1 / van der Waals contact distance, MASP-2 PRO 606 atom O / d(C3,CA1) / d(CA1,N1)2 / d(H4,O1) / d(H4,O2) / d(O1,O2) / d(CA1,O2) / d(CA6,O1) / d(CA6,O2) / d(CA1,C5) / d(O2,H3) / d(N2,C2) / d(CA5,N2) / d(N2,C4) / d(N2,C6) / d(N2,CA3) / d(N2,O3) / d(O4,H2): unit not given beside the values
Conditions: for H-bond distance to MASP-2 GLY 656 atom N: GLY 656 N; for H-bond distance to MASP-2 SER 654 atom O: SER 654 O; for van der Waals contact distance, VAL 653 CG1 to compound atom: Table A2-11
How it was run: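 First, CCP2-SP constructs with or without a 6His tag are produced in E. coli. Crystals are then soaked once or twice with inhibitor, cryoprotected in 20% glycerol or frozen directly, and diffracted at synchrotron beamlines. Phasing uses molecular replacement with parts of 1Q3X.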

[1] = Table A2-9, ARG 630, AA atoms CG, CZ
[2] = Table A5-1 pharmacophore: distance between elements, S2/S1 region
[3] = Table A5-2 pharmacophore distance, S3/S4 region
[4] = Table A7-1, between pharmacophore elements of the bound compound

Sequence of MASP-2 CCP2-SP (O00187 445-686): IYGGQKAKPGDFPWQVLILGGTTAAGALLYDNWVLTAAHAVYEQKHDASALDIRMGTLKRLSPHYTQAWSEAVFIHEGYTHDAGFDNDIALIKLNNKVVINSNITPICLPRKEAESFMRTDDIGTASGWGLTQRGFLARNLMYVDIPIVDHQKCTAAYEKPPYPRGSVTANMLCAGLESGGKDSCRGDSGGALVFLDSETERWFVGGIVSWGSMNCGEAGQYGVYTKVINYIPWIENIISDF
Sequence of MASP-2 CCP2-SP (O00187 364-432 partner): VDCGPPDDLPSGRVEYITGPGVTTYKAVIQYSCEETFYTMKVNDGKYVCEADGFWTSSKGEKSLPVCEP

N=C(N)c1ccc(CNC(=O)C(CF)NC(=O)[C@H](N)CCc2ccccc2)cc1 (stereo partly drawn) [compound 1050, (2R)-2-Amino-N-(1-((4-carbamimidoylbenzyl)amino)-3-fluoro-1-oxopropan-2-yl)-4-phenylbutanamide Dihydrochloride]
H-bond distance to MASP-2 GLY 656 atom N (Table A1 (H-Bonds)): 3.18
H-bond distance to MASP-2 GLY 656 atom O (Table A1 (H-Bonds), GLY 656 O): 2.58
H-bond distance to MASP-2 SER 654 atom O (Table A1 (H-Bonds)): 3.03
H-bond distance to MASP-2 SER 657 atom O (Table A1 (H-Bonds), SER 657 O): 2.86
van der Waals contact distance, MASP-2 PHE 529 atom CD1 (Table A2-3): 3.61
van der Waals contact distance, MASP-2 PHE 529 atom CE1 (Table A2-3): 3.56
van der Waals contact distance, MASP-2 PHE 529 atom CZ (Table A2-3): 3.88
van der Waals contact distance, MASP-2 amino acid atom to compound atom (Table A2-5: TYR 607 (CE1, CE2, OH), PRO 608 (CD, CG), SER 611 (CA)): 3.68
van der Waals contact distance, MASP-2 amino acid atom to compound atom [1]: 3.66
van der Waals contact distance, MASP-2 amino acid atom to compound atom (Table A2-9 second part, ARG 630, AA atoms N, NE, NH1): 3.66
van der Waals contact distance, VAL 653 CG1 to compound atom: 3.74
van der Waals contact distance, SER 654 O to compound atom (Table A2-12): 3.72
van der Waals contact distance TRP 655 atom CZ3 (Table A2-13, MASP-2 TRP 655 CZ3): 3.81
van der Waals contact distance TRP 655 atom N (Table A2-13, MASP-2 TRP 655 N): 3.74
Ligand-pharmacophore element distance, pharmacophore element C2 (Table A4-1, element C2): 6.95
Ligand-pharmacophore element distance, pharmacophore element C3 (Table A4-1, element C3): 0
Ligand-pharmacophore element distance, pharmacophore element C4 (Table A4-1, element C4): 0
Ligand-pharmacophore element distance, pharmacophore element C5 (Table A4-1, element C5): 0
Ligand-pharmacophore element distance, pharmacophore element C6 (Table A4-1, element C6): 0
Ligand-pharmacophore element distance, pharmacophore element C7 (Table A4-1, element C7): 0
Ligand-pharmacophore element distance, pharmacophore element CA1 (Table A4-1, element CA1): 0.57
Ligand-pharmacophore element distance, pharmacophore element CA2 (Table A4-1, element CA2): 0.33
Ligand-pharmacophore element distance, pharmacophore element CA3 (Table A4-1, element CA3): 0
Ligand-pharmacophore element distance, pharmacophore element CA4 (Table A4-1, element CA4): 0
Ligand-pharmacophore element distance, pharmacophore element CA5 (Table A4-1, element CA5): 0
Ligand-pharmacophore element distance, pharmacophore element CA6 (Table A4-1, element CA6): 0
d(CA1,N1) [2]: 3.47
d(CA1,O1) [2]: 4.10
d(CA1,O2) [2]: 4.29
d(H4,O1) [2]: 4.58
d(H4,O2) [2]: 4.38
d(O1,O2) [2]: 3.01
d(N2,C2) [3]: 6.69
d(N2,CA2) [3]: 5.73
d(O2,H3) [3]: 2.72
d(O2,N2) [3]: 2.76
a(CA1, O1, O2) (Table A6-1 pharmacophore angle): 114.34
a(O1, O2, H4) (Table A6-1 pharmacophore angle): 140.76
A(N1, CA1, O1) a) (Table A6-1 pharmacophore angle, all compounds with protonatable center N1 except Methyl-amino-pyridine): 160.78
a(O1, O2, H3) (Table A6-2 pharmacophore angle): 137.51
a(O1, O2, N2) (Table A6-2 pharmacophore angle): 140.97
a(O2, N2, C2) (Table A6-2 pharmacophore angle): 159.29
a(O2, N2, CA2) (Table A6-2 pharmacophore angle): 153.66
Pharmacophore torsion angle a(H4, O1, O2, H3) [4]: 102.21
Pharmacophore torsion angle a(H4, O1, O2, N2) [4]: 123.45
Pharmacophore torsion angle a(N1, CA1, O2, H4) [4]: −131.38
Pharmacophore torsion angle a(O1, H4, O2, CA1) [4]: −58.32
Pharmacophore torsion angle a(O1, O2, N2, C2) [4]: 66.94
Pharmacophore torsion angle a(O1, O2, N2, CA2) (Table A7-2, between pharmacophore elements of the bound compound): 147.29

C[C@H](NC(=O)[C@H]1C[C@@H](c2ccccc2)CCN1)C(=O)NCc1cc(Cl)ccc1O [compound 1078]
H-bond distance to MASP-2 ARG 630 atom NH1 (second bond) (Table A1 (H-Bonds), ARG 630 NH1): 3.25
H-bond distance to MASP-2 ARG 630 atom NH1 (Table A1 (H-Bonds), ARG 630 NH1, first column): 2.92
H-bond distance to MASP-2 GLY 656 atom N (Table A1 (H-Bonds)): 3.14
H-bond distance to MASP-2 SER 654 atom O (Table A1 (H-Bonds)): 2.66
van der Waals contact distance, MASP-2 HIS 483 atom CD2 (Table A2-1): 3.35
van der Waals contact distance, MASP-2 HIS 483 atom NE2 (Table A2-1): 3.28
van der Waals contact distance, MASP-2 amino acid atom to compound atom [1]: 3.78
van der Waals contact distance, VAL 653 CG1 to compound atom: 3.49

— US12195427B2, “MASP-2 inhibitors and methods of use” (priority 2018, dated 2025)
